Reference: article PMC7409168, “The Multidrug Resistance-Reversing Activity of a Novel Antimicrobial Peptide” (Cancers, 2020)
Read-outs that look alike come from different tables or passages of the source. Residues, ends and D or L forms follow the SMILES beside them.

Tests used:
[1] = target: T1, ABCB1 (Homo sapiens, UniProt P08183); design: purchased BD Biosciences (San Jose, CA, USA); method as in PMID 25456855; details: non-competitive inhibitor; cited from earlier work
[2] = test system: parental cells (KB-3-1); details: read-out: IC50 of peptide; KB-3-1 (parental); MTT, 570 nm; at least three independent triplicate experiments
Description: (§1) The drug-selected ABCG2-overexpressing non-small cell lung cancer (NSCLC) cell line NCI-H460/MX20 and its parental NCI-H460 cell line, and the ABCB1 gene-transfected HEK293 cells, HEK293/ABCB1, and its parental empty vector transfected HEK293 cells, HEK293/pcDNA3.1 were provided by Drs. Susan E. Bates and Robert Robey (NIH, MD). The drug-resistant ABCB1 overexpressing human epidermal carcinoma cell line KB-C2 and its parental KB-3-1 cell line were generously provided by Dr. Shin-Ichi Akiyama (Kagoshima University, Kagoshima, Japan). All cell lines were cultured in complete Dulbecco’s modified Eagle’s medium(DMEM) (Hyclone, GE Healthcare Life Sciences, Pittsburgh, PA, USA) with the addition of 10% fetal bovine serum (FBS) and 1% penicillin/streptomycin (Hyclone, GE Healthcare Life Sciences, Pittsburgh, PA, USA). The transfected cell lines were selected in complete medium with addition of 2 mg/mL of Geneticin (Enzo Life Sciences, Farmingdale, NY, USA) for selection, KB-C2 cells were continually treated with complete medium and […], and NCI-H460/MX20 cells were cultured with 20 ng/mL mitoxantrone added to the complete medium. All drug-treated cell lines were recovered for more than 2 weeks without treatment before their use. The culture condition was in a humidified incubator at 37 °C with 5% CO2.
(§2) The final absorbance of each well was measured by Microplate Spectrophotometer (Fisher Sci., Fair Lawn, NJ, USA) at 570 nm.

[3] = test system: parental cells NCI-H460; details: read-out: IC50 of peptide, MTT, 570 nm, at least three independent experiments in triplicate
Description: as §1, §2

[4] = in vitro; details: human
Description: as §1, §2

[5] = test system: HEK293/pcDNA3.1; assay: MTT cytotoxicity of ABCB1 substrates with or without a reversal agent, HEK293/pcDNA3.1; assay type: cell-based; details: no reversal agent; for IC50: mean ± SD, at least three independent experiments in triplicate, read-out: IC50 of the anticancer drug alone; for RF (resistant fold) of the anticancer drug alone: relative to drug alone in HEK293/pcDNA3.1
Description: as §1, §2

[6] = test system: NCI-H460/MX20; assay: MTT cytotoxicity of ABCG2 substrates with or without a reversal agent, NCI-H460/MX20; assay type: cell-based, human; details: for IC50: NCI-H460/MX20, mean ± SD, at least three independent experiments in triplicate, read-out: IC50 of the anticancer drug alone; for IC50 / RF (resistant fold) of the anticancer drug alone: no reversal agent
Description: as §1, §2

[7] = test system: NCI-H460; assay: MTT cytotoxicity of ABCG2 substrates with or without a reversal agent, NCI-H460; assay type: cell-based, human; details: for IC50 / RF (resistant fold) of the anticancer drug alone: no reversal agent; for IC50: mean ± SD, at least three independent experiments in triplicate, read-out: IC50 of the anticancer drug alone; for RF (resistant fold) of the anticancer drug alone: relative to drug alone in NCI-H460
Description: as §1, §2

[8] = test system: KB-3-1; assay: MTT cytotoxicity of ABCB1 substrates with or without a reversal agent, KB-3-1; assay type: cell-based, human; details: no reversal agent; for IC50: mean ± SD, at least three independent experiments in triplicate, read-out: IC50 of the anticancer drug alone; for RF (resistant fold) of the anticancer drug alone: IC50 relative to drug alone in KB-3-1
Description: as §1, §2

[9] = test system: KB-C2; assay: MTT cytotoxicity of ABCB1 substrates with or without a reversal agent, KB-C2; details: for RF (resistant fold) of the anticancer drug alone: IC50 in KB-C2 divided by IC50 in KB-3-1
Description: as §1, §2

[10] = test system: HEK293/ABCB1; assay: MTT cytotoxicity of ABCB1 substrates with or without a reversal agent, HEK293/ABCB1; assay type: cell-based; details: no reversal agent; for IC50: HEK293/ABCB1, mean ± SD, at least three independent experiments in triplicate, read-out: IC50 of the anticancer drug alone; for RF (resistant fold) of the anticancer drug alone: IC50 in HEK293/ABCB1 divided by IC50 in HEK293/pcDNA3.1
Description: as §1, §2

[11] = test system: KB-3-1 cells; assay: [3H]-paclitaxel efflux assay in KB-3-1; assay type: cell-based, human; details: 2 h, with or without a reversal agent
Protocol: (§3) [^3H]-paclitaxel (31 Ci/mmol, Moravek Biochemicals, Brea, CA, USA) was used to measure the drug accumulation and efflux as previously described. The only difference is that after the cells were seeded evenly in 24-well plate, the cells were incubated in the presence or absence of XH-14C and a parallel positive reversal agent for […]. Liquid scintillation cocktail used to measure the radioactivity was purchased from MP Biomedicals, Inc (St. Ana, CA, USA) and the radioactivity of different groups were read with the Packard TRI-CARB1 190‘A liquid scintillation analyzer. A parallel well of cells for each group was set up for cell number counting at the end of the assay for the purpose of data normalization.

[12] = test system: ABCB1-overexpressing KB-C2 cells; assay type: cell-based, human
Protocol: as §3

[13] = test system: ABCB1 on KB-C2 cells; assay type: cell-based, human
Protocol: as §3

[14] = target: T1, ABCB1; details: XH-14C 0–40 μM; vanadate-sensitive; phosphate read at 800 nm; three independent experiments
Protocol: The vanadate-sensitive membrane vesicles ABCB1 and ABCG2 ATPase activity were determined as previously described, and the ABCB1- and ABCG2-overexpressing cell membranes were purchased from BD Biosciences (San Jose, CA, USA). The ATPase activities were calculated based on the measurement of inorganic phosphate (IP)detected using a spectrophotometer at 800 nm.

[15] = KB-C2 cells (ABCB1-overexpressing human epidermal carcinoma)
[16] = NCI-H460/MX20 cells (ABCG2-overexpressing NSCLC)
[17] = Homo sapiens, KB-C2, read-out: IC50 of the anticancer drug alone
[18] = IC50 in NCI-H460/MX20 divided by IC50 in NCI-H460

T1 sequence (P08183 whole entry): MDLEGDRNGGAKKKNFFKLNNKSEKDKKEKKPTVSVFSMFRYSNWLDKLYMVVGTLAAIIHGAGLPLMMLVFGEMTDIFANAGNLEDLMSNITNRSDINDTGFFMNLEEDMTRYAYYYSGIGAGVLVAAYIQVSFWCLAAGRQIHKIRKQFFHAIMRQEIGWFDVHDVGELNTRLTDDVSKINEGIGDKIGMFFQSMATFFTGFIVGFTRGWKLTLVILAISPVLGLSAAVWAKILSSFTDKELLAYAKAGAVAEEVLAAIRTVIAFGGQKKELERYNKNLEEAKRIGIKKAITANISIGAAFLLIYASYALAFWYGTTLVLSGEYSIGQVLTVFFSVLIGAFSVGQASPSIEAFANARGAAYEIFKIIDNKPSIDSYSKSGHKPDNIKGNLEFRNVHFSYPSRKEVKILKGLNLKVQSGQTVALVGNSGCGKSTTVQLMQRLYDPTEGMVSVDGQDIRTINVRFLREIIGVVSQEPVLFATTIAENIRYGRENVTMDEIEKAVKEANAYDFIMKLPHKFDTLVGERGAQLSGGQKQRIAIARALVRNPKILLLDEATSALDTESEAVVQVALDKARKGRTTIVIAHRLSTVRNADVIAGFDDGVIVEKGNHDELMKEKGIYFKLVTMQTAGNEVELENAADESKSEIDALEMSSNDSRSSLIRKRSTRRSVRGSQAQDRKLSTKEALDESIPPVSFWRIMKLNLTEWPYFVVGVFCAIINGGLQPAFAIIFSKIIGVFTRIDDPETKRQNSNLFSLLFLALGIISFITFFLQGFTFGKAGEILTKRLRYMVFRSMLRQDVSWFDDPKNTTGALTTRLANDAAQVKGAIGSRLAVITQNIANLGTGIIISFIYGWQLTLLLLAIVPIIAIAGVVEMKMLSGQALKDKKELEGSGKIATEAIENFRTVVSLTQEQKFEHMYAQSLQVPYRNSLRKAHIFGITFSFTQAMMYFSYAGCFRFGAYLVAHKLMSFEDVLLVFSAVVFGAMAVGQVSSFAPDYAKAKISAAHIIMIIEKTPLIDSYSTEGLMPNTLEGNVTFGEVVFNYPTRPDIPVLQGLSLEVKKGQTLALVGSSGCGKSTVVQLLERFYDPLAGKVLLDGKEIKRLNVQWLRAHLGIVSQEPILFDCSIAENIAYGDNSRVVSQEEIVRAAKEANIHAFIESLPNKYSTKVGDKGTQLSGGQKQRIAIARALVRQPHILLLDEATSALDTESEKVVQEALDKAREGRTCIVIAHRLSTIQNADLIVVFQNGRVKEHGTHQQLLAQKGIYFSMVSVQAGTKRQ

Compound: COc1cc2c(cc1OC)CN(CCc1ccc(NC(=O)c3cc(OC)c(OC)cc3NC(=O)c3cnc4ccccc4c3)cc1)CC2 [tariquidar]
- ABCB1 ATPase stimulation [1]: able to stimulate ABCB1 ATPase activity

Compound: CC[C@H](C)[C@H](NC(=O)[C@H](CCCNC(=N)N)NC(=O)[C@H](CCCCN)NC(=O)[C@@H](NC(=O)[C@@H](N)Cc1ccccc1)[C@@H](C)CC)C(=O)N[C@@H](C)C(=O)N[C@@H](CCCNC(=N)N)C(=O)N[C@@H](CC(C)C)C(=O)N[C@@H](CC(C)C)C(=O)N[C@@H](CCCNC(=N)N)C(=O)N[C@@H](CCCCN)C(=O)N[C@H](C(=O)N[C@@H](CCCCN)C(=O)N[C@@H](CCCNC(=N)N)C(=O)O)[C@@H](C)CC [XH-14A] (H-FIKRIARLLRKIKR-OH)
- IC50 [2]: 8.73 µM
- IC50 [3]: 10.1 µM
- IC50 [4, 15]: 22.4 µM
- IC50 [4, 16]: 8.22 µM

Compound: N.N.[Cl][Pt][Cl] [Cisplatin, cisplatin]
- IC50 [5]: 2.27 ± 0.489 µM
- IC50 [6]: 3.15 ± 0.47 µM
- IC50 [7]: 2.76 ± 0.23 µM
- IC50 [8]: 1.64 ± 0.487 µM
- IC50 ([9]; read-out: IC50 of the anticancer drug alone, KB-C2, no reversal agent, mean ± SD, at least three independent experiments in triplicate): 1.76 ± 0.377 µM

Compound: COc1cccc2c1C(=O)c1c(O)c3c(c(O)c1C2=O)C[C@@](O)(C(=O)CO)C[C@@H]3O[C@H]1C[C@H](N)[C@H](O)[C@H](C)O1 [Doxorubicin, doxorubicin]
- IC50 ([5]; Homo sapiens): 1.226 ± 0.00188 µM
- RF (resistant fold) of the anticancer drug alone [5]: 1.00
- IC50 [10]: 32.6 ± 4.81 µM
- RF (resistant fold) of the anticancer drug alone [10]: 26.6
- IC50 ([8]; Homo sapiens): 1.28 ± 0.189 µM
- RF (resistant fold) of the anticancer drug alone [8]: 1.00
- IC50 [9, 17]: 67.6 ± 2.46 µM
- RF (resistant fold) of the anticancer drug alone ([9]; no reversal agent): 53.0

Compound: CC(=O)O[C@H]1C(=O)[C@@]2(C)[C@H]([C@H](OC(=O)c3ccccc3)[C@]3(O)C[C@H](OC(=O)[C@H](O)[C@@H](NC(=O)c4ccccc4)c4ccccc4)C(C)=C1C3(C)C)[C@]1(OC(C)=O)CO[C@@H]1C[C@@H]2O [[^3H]-paclitaxel]
- change of cellular [3H]-paclitaxel in KB-3-1 [11]: did not significantly change
- intracellular [3H]-paclitaxel in KB-C2, fold lower than in KB-3-1 [12]: more than 100 fold
- decrease in intracellular [3H]-paclitaxel (efflux) without XH-14C [13]: about 50%

Compound: COc1ccc2c3c([nH]c2c1)[C@H](CC(C)C)N1C(=O)[C@H](CCC(=O)OC(C)(C)C)NC(=O)[C@@H]1C3 [Ko143]
- RF of cisplatin in combination with reversal agent ([6]; cisplatin + reversal agent 3 μM, IC50 in NCI-H460/MX20 divided by IC50 in NCI-H460): 1.23
- RF of mitoxantrone in combination with reversal agent ([6]; mitoxantrone + reversal agent 3 μM, IC50 in NCI-H460/MX20 divided by IC50 in NCI-H460): 2.28
- RF of topotecan in combination with reversal agent ([6]; topotecan + reversal agent 3 μM, IC50 in NCI-H460/MX20 divided by IC50 in NCI-H460): 1.96
- RF of cisplatin in combination with reversal agent ([7]; cisplatin + reversal agent 3 μM, relative to NCI-H460): 1.26
- RF of mitoxantrone in combination with reversal agent ([7]; mitoxantrone + reversal agent 3 μM, relative to NCI-H460): 1.10
- RF of topotecan in combination with reversal agent ([7]; topotecan + reversal agent 3 μM, relative to NCI-H460): 0.76

Compound: CC[C@H](C)[C@H](NC(=O)[C@H](CCCNC(=N)N)NC(=O)[C@H](CCCCN)NC(=O)[C@@H](NC(=O)[C@@H](N)Cc1ccccc1)[C@@H](C)CC)C(=O)N[C@@H](C)C(=O)N[C@@H](CCCNC(=N)N)C(=O)N[C@@H](CC(C)C)C(=O)N[C@@H](CC(C)C)C(=O)N[C@@H](CCCNC(=N)N)C(=O)N[C@@H](CCCCN)C(=O)N[C@H](C(=O)N[C@@H](Cc1ccccc1)C(=O)N[C@@H](CCCNC(=N)N)C(=O)O)[C@@H](C)CC [XH-14B] (H-FIKRIARLLRKIFR-OH)
- IC50 [2]: 10 µM
- IC50 [3]: 9.37 µM
- IC50 [4, 15]: 8.38 µM
- IC50 [4, 16]: 7.28 µM

Compound: CC[C@H](C)[C@H](NC(=O)[C@H](CCCNC(=N)N)NC(=O)[C@H](CCCCN)NC(=O)[C@@H](NC(=O)[C@@H](N)Cc1ccccc1)[C@@H](C)CC)C(=O)N[C@@H](C)C(=O)N[C@@H](CCCNC(=N)N)C(=O)N[C@@H](CC(C)C)C(=O)N[C@@H](CC(C)C)C(=O)N[C@@H](CCCNC(=N)N)C(=O)N[C@@H](CCCCN)C(=O)N[C@H](C(=O)N[C@@H](Cc1c[nH]c2ccccc12)C(=O)N[C@@H](CCCNC(=N)N)C(=O)O)[C@@H](C)CC [XH-14C] (H-FIKRIARLLRKIWR-OH)
- IC50 [2]: 8.12 µM
- IC50 [3]: 9.07 µM
- IC50 [4, 15]: 7.82 µM
- IC50 [4, 16]: 8.3 µM
- maximal stimulation of ABCB1 ATPase activity [14]: 3.28 fold
- effect on cytotoxicity of cisplatin ([9]; non-substrate of ABCB1, all tested cell lines): no effect on the cytotoxicity of cisplatin

Compound: CC(=O)O[C@H]1C(=O)[C@@]2(C)[C@H]([C@H](OC(=O)c3ccccc3)[C@]3(O)C[C@H](OC(=O)[C@H](O)[C@@H](NC(=O)c4ccccc4)c4ccccc4)C(C)=C1C3(C)C)[C@]1(OC(C)=O)CO[C@@H]1C[C@@H]2O [Paclitaxel, paclitaxel]
- IC50 ([5]; Homo sapiens): 0.0143 ± 0.00153 µM
- RF (resistant fold) of the anticancer drug alone [5]: 1.00
- IC50 [10]: 0.306 ± 0.0454 µM
- RF (resistant fold) of the anticancer drug alone [10]: 21.38
- IC50 ([8]; Homo sapiens): 0.003 ± 0.0005 µM
- RF (resistant fold) of the anticancer drug alone [8]: 1.00
- IC50 [9, 17]: 1.31 ± 0.271 µM
- RF (resistant fold) of the anticancer drug alone ([9]; no reversal agent): 437

Compound: CC[C@@]1(O)C(=O)OCc2c1cc1n(c2=O)Cc2cc3c(CN(C)C)c(O)ccc3nc2-1 [Topotecan, topotecan]
- IC50 ([6]; Homo sapiens): 39.2 ± 4.85 µM
- RF (resistant fold) of the anticancer drug alone [6, 18]: 799
- IC50 ([7]; Homo sapiens): 0.049 ± 0.006 µM
- RF (resistant fold) of the anticancer drug alone [7]: 1.00

Compound: O=C1c2c(O)ccc(O)c2C(=O)c2c(NCCNCCO)ccc(NCCNCCO)c21 [Mitoxantrone, mitoxantrone]
- IC50 ([6]; Homo sapiens): 36.6 ± 4.53 µM
- RF (resistant fold) of the anticancer drug alone [6, 18]: 937
- IC50 ([7]; Homo sapiens): 0.039 ± 0.005 µM
- RF (resistant fold) of the anticancer drug alone [7]: 1.00
